Literature values, collected in patent publication US20240156825A1, “USE OF SELECTIVE VEGFR2 AND FGFR1 INHIBITORS” (Fountain Therapeutics Inc., priority 2022, published 2024).
Where two headings read alike, the source gives them in different places.

What was measured:
VEGFR2 = VEGFR2 (Homo sapiens, UniProt P35968); details: reported IC50 to VEGFR2, read-out: VEGFR2 IC50_μM, cited from earlier work
any gene target = details: next lowest IC50 value to any gene target, read-out: Min IC50_μM, cited from earlier work
[1] = Table 3, selective inhibitors of VEGFR2

Chain of VEGFR2 (P35968 20-1356, species assumed): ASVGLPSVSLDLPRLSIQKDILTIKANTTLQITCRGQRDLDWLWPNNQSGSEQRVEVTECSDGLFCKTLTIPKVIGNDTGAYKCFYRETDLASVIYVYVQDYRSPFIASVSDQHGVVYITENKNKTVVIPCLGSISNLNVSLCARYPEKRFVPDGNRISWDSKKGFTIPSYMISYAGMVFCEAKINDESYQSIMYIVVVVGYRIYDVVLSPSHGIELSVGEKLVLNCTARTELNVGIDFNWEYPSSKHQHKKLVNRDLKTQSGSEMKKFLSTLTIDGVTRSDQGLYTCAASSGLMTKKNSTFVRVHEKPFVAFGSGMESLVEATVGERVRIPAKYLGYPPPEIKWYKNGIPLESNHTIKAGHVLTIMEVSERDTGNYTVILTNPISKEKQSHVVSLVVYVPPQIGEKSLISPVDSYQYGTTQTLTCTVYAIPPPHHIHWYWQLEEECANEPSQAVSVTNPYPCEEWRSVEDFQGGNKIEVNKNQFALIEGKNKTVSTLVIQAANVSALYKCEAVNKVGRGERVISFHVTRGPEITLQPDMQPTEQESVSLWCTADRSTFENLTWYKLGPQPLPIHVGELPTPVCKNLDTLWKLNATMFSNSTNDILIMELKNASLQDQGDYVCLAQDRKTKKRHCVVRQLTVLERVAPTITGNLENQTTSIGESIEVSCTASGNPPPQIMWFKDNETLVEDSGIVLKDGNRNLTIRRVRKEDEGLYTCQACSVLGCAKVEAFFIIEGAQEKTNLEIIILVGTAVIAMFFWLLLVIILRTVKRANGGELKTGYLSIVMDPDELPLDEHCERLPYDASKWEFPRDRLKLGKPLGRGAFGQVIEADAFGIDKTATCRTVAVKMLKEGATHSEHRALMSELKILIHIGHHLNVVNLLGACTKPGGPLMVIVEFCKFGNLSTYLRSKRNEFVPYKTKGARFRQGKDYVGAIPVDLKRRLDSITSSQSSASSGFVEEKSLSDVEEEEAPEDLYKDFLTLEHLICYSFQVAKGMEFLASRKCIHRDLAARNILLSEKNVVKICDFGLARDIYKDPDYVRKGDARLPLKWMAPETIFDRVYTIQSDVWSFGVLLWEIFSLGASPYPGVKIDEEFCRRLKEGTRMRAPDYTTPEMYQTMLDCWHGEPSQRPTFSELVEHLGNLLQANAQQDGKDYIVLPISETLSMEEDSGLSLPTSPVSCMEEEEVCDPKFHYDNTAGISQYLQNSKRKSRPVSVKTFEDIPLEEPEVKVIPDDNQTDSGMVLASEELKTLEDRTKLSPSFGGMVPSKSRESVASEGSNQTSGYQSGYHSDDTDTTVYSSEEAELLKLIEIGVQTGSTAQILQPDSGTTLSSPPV

Row | Structure (SMILES) | IC50 (VEGFR2) [nM] | IC50 (any gene target) [nM] | IC50 (VEGFR2; [1]) [nM] | IC50 (any gene target; Table 3) [nM]
1 | COc1cc(C2=C(c3cn(COCC[Si](C)(C)C)c4ccccc34)CNC2=O)cc(OC)c1OC [compound 24894886] | 3100 | 4500 | – | –
2 | COCn1cc(C2=C(c3cc(OC)c(OC)c(OC)c3)C(=O)NC2)c2ccccc21 [compound 24894887] | 2300 | 3200 | – | –
3 | COc1cc(C2=C(c3cn(COC(C)(C)C)c4ccccc34)CNC2=O)cc(OC)c1OC [compound 24894992] | – | – | 4400 | 4400
4 | COc1cc(C2=C(c3cn(COCc4ccccc4)c4ccccc34)CNC2=O)cc(OC)c1OC [compound 24894993] | 1600 | 1700 | – | –
5 | COc1cc(C2=C(c3cn(COC(C)C)c4ccccc34)CNC2=O)cc(OC)c1OC [compound 24894996] | 5200 | 5300 | – | –
6 | COc1cc(C2=C(c3cn(COc4ccccc4)c4ccccc34)CNC2=O)cc(OC)c1OC [compound 24894997] | 1500 | 1700 | – | –
7 | C[C@@H](Nc1ncnc2[nH]c(-c3ccc(CN4CCN(CCCC(=O)NO)CC4)cc3)cc12)c1ccccc1 [compound 24900378] | 100 | 1000 | – | –
8 | C[C@@H](Nc1ncnc2[nH]c(-c3ccc(CN4CCN(CCCCC(=O)NO)CC4)cc3)cc12)c1ccccc1 [compound 24900441] | 100 | 100 | – | –
9 | C[C@@H](Nc1ncnc2[nH]c(-c3ccc(CN4CCN(CCCCCC(=O)NO)CC4)cc3)cc12)c1ccccc1 [compound 24900442] | 100 | 100 | – | –
10 | C[C@@H](Nc1ncnc2[nH]c(-c3ccc(CN4CCN(CCCCCCC(=O)NO)CC4)cc3)cc12)c1ccccc1 [compound 24900443] | 100 | 100 | – | –
11 | C[C@@H](Nc1ncnc2[nH]c(-c3ccc(OCCCC(=O)NO)cc3)cc12)c1ccccc1 [compound 24900506] | 100 | 100 | – | –
12 | C[C@@H](Nc1ncnc2[nH]c(-c3ccc(OCCCCC(=O)NO)cc3)cc12)c1ccccc1 [compound 24900507] | 100 | 100 | – | –
13 | C[C@@H](Nc1ncnc2[nH]c(-c3ccc(NC(=O)CCCC(=O)NO)cc3)cc12)c1ccccc1 [compound 24900574] | 100 | 100 | – | –
14 | C[C@@H](Nc1ncnc2[nH]c(-c3ccc(C(=O)NCCNCCCCCC(=O)NO)cc3)cc12)c1ccccc1 [compound 24900641] | 100 | 100 | – | –
15 | C[C@@H](Nc1ncnc2[nH]c(-c3ccc(CNCCCCCC(=O)NO)cc3)cc12)c1ccccc1 [compound 24900643] | 100 | 100 | – | –
16 | O=C(CCCCCN1CCN(Cc2ccc(-c3cc4c(NCc5ccccc5)ncnc4[nH]3)cc2)CC1)NO [compound 24900714] | – | – | 100 | 100
17 | C[C@@H](Nc1ncnc2[nH]c(-c3ccc(C(=O)NO)cc3)cc12)c1ccccc1 [compound 24900715] | – | – | 100 | 100
18 | C[C@@H](Nc1ncnc2[nH]c(-c3ccc(C(=O)NO)cc3)cc12)c1ccc(F)cc1 [compound 24900772] | – | – | 100 | 100
19 | Cc1nn(C)c2cc(N(C)c3ccnc(Nc4cccc(S(N)(=O)=O)c4)n3)ccc12 [compound 24949545] | 36 | 1000 | – | –
20 | CN(c1ccc2cn(C)nc2c1)c1ccnc(Nc2cccc(S(N)(=O)=O)c2)n1 [compound 24949548] | 7.6 | 2900 | – | –
21 | Cc1c2ccc(N(C)c3ccnc(Nc4cccc(S(N)(=O)=O)c4)n3)cc2nn1C [compound 24949700] | 5.6 | 1400 | – | –
22 | Cc1nc2ccc(N(C)c3ccnc(Nc4cccc(S(N)(=O)=O)c4)n3)cc2n1C [compound 24949704] | 63 | 1700 | – | –
23 | O=C(CCCCCCCNC(=O)c1cc(Oc2ccc(NC(=O)Nc3ccc(Cl)c(C(F)(F)F)c3)cc2)ccn1)NO [compound 25071593] | 100 | 100 | – | –
24 | O=C(CCCCCCNCc1cc(Oc2ccc(NC(=O)Nc3ccc(Cl)c(C(F)(F)F)c3)cc2)ccn1)NO [compound 25072217] | 100 | 100 | – | –
25 | O=C(CCCCCCCNCc1cc(Oc2ccc(NC(=O)Nc3ccc(Cl)c(C(F)(F)F)c3)cc2)ccn1)NO [compound 25072218] | 100 | 100 | – | –
26 | CSc1cn2c(-c3cn[nH]c3)cnc2c(Nc2cc(C)ns2)n1 [compound 25094210] | 36 | 167 | – | –
27 | Cc1cn2c(-c3cn[nH]c3)cnc2c(Nc2cc(CN3CCCCC3)ns2)n1 [compound 25144294] | 4 | 12 | – | –
28 | CN(c1ccc(F)c(NC(=O)c2cccc(OC(C)(C)C#N)c2Cl)c1)c1ccc2nc(NC(=O)C3CC3)sc2n1 [compound 25206346] | 1.2 | 23 | – | –
29 | CCN1CCN(Cc2ccc(NC(=O)c3ccc(C)c(NC(=O)c4cncc(-c5cccs5)c4)c3)cc2C(F)(F)F)CC1 [compound 42628503] | – | – | 500 | 500
30 | O=C(Nc1cccc(-c2cncc3ccccc23)c1)c1ccccc1NCc1ccncc1 [compound 44368815] | 1.16 | 52 | – | –
